Structures can show the parent of a compound that is named as a salt.

Broadly, the melting point is the temperature of the solid-liquid transition.

A short description of data set [1]: HPLC/UV analysis of liver and cerebral cortex homogenates for parent drug, primary metabolite and glucuronide conjugates. The format is in vivo, Female Fischer 344 rats. The note with it: for peaks corresponding to the glucuronide conjugates in the HPLC chromatogram of the cerebral cortex homogenate: eight hours after dosing. How it is done:
A liver and cerebral cortex homogenate were analyzed by HPLC and UV detection at 315 nm to determine if the radioactivity in these tissues was actually due to the drug initially dosed, to the primary metabolite, 6-hydroxy-2-(4-hydroxyphenyl)-3-[4-(piperidinoethoxy)phenoxy]-benzo[b]thiophene, or there glucuronide conjugates. The cerebral cortex sample was obtained eight hours after dosing and the liver samples were collected at four and eight hours after dosing. The proteins in the homogenate were precipitated with acetonitrile and the supernate was evaporated to dryness. The residue was reconstituted in mobile phase and injected onto a SynChropak SCD-100 column with the initial mobile phase composed of […]. (v/v/v). The retention times of the peaks from the homogenate were compared with those obtained from authentic samples of 6-hydroxy-2-(4-methoxyphenyl)-3-[4-(piperidinoethoxy)phenoxy]benzo[b]thiophene and its metabolite, 6-hydroxy-2-(4-hydroxyphenyl)-3-[4-(piperidinoethoxy)phenoxy]benzo [b]-thiophene.

Data set [2] relates to gene expression in the hippocampus. Put plainly: Differential mRNA display in hippocampi of ovariectomized rats after five weeks of daily treatment. Type of data set: in vivo, female Sprague-Dawley rats. The note with it: 1 mg/kg daily subcutaneous, comparator estradiol benzoate 0.03 mg/kg. The method, then: A commonly employed model of estrogen depletion is the ovariectomized adult rat. An experiment was conducted in ovariectomized rats using differential mRNA display to determine the similarities and/or differences between a representative compound of the present invention, 6-hydroxy-2-(4-methoxyphenyl)-3-[4-(2-piperidinoethoxy)phenoxy]-benzo[b]thiophene, and estrogen at affecting gene expression in various brain regions. Specifically, female Sprague-Dawley rats, 6 weeks of age, were ovariectomized by the vendor. Following one week of acclimation to the laboratory facility, daily subcutaneous injections of estradiol benzoate (0.03 mg/kg) or 6-hydroxy-2-(4-methoxyphenyl)-3-[4-(2-piperidinoethoxy)phenoxy]-benzo[b]thiophene (1 mg/kg), or vehicle (control) were initiated.
After five weeks of daily treatment, animals were sacrificed and their brains removed and hippocampi collected by microdissection. The hippocampi were fast frozen in liquid nitrogen and stored at −70_C. Total RNA was prepared from pooled tissue from the appropriate treatment and control groups and reverse transcribed using a 3′ oligonucleotide primer which selected for specific mRNA (poly-A+) populations. Polymerase chain reactions (PCR) were carried out in a cocktail consisting of: random 5′ oligonucleotides (10 base-pairs in length; total of 150), reaction buffer, Taq polymerase, and a ^32PdTCP. […]

Data set [3] can be described thus: Distribution of radioactivity among tissues after a single oral dose of 14C-labeled compound in the female F344 rat. The format is in vivo, Female Fischer 344 rats. The method, then:
Female Fischer 344 rats (approximately twelve weeks old) were given a single oral gavage dose of 5 mg/kg (30 mCi/kg) of ^14C-labeled 6-hydroxy-2-(4-methoxyphenyl)-3-[4-(piperidinoethoxy)phenoxy]benzo[b]thiophene hydrochloride in 50% PEG 300/50% water. Blood and tissues were collected from three rats at each time point: just prior to dosing and at 2, 4, 8, and 24 hours after dosing. At each time point, the animals were sacrificed, blood samples were collected and the heparinized blood was centrifuged and the plasma obtained. Following collection of the bloood sample in each case, the animals were perfused with 0.9% saline solution and the brain, pituitary, femurs, ovaries, uterus and liver were surgically removed and placed in separate containers. […]
The radioactivity of each sample was determined by liquid scintillation spectrometry. Plasma was counted directly, while the other tissues were either homogenized, digested, or oxidized prior to liquid scintillation counting. […]
Samples were oxidized on a Packard Model307 Oxidizer and the resulting ^14CO2 trapped for liquid scintillation counting. The radioactivity in each tissue sample was converted to nanogram equivalents per gram of tissue (specific activity=16.3 dpm/ng). The 0-24 hour area under the curve (AUC0-24 hr) was calculated for each sample.

As to `COc1ccc(-c2sc3cc(OC)ccc3c2Oc2ccc(OCCN3CCCCC3)cc2)cc1` (as salt: hydrochloride) [Example 2, [6-methoxy-3-[4-[2-(1-piperidinyl)ethoxy]-phenoxy]-2-(4-methoxyphenyl)]benzo[b]thiophene hydrochloride salt], the melting point lay in the range of 216 to 220 °C.

`COc1ccc(-c2sc3cc(OC)ccc3c2Oc2ccc(OCCN3CCCCCC3)cc2)cc1` (as salt: hydrochloride) [Example 4, [6-Methoxy-3-[4-[2-(1-hexamethyleneimino)ethoxy]phenoxy]-2-(4-methoxyphenyl)]benzo[b]thiophene Hydrochloride] yielded a melting point of 189 to 192 °C.

In the case of `CCN(CC)CCOc1ccc(Oc2c(-c3ccc(OC)cc3)sc3cc(OC)ccc23)cc1` (as salt: hydrochloride) [Example 5, [6-Methoxy-3-[4-[2-(1-N,N-diethylamino)ethoxy]phenoxy]-2-(4-methoxyphenyl)]benzo[b]thiophene Hydrochloride], the melting point lay within 196 to 198 °C.

For the compound `COc1ccc(-c2sc3cc(OC)ccc3c2Oc2ccc(OCCN3CCOCC3)cc2)cc1` (as salt: hydrochloride) [Example 6, [6-Methoxy-3-[4-[2-(morpholino)ethoxy]-phenoxy]-2-(4-methoxyphenyl)]benzo[b]thiophene Hydrochloride], the melting point was 208 to 211 °C.

For the compound `Oc1ccc(-c2sc3cc(O)ccc3c2Oc2ccc(OCCN3CCOCC3)cc2)cc1` (as salt: hydrochloride) [Example 13, [6-Hydroxy-3-[4-[2-(morpholino)ethoxy]-phenoxy]-2-(4-hydroxyphenyl)]benzo[b]thiophene Hydrochloride], the melting point fell in the range of 157 to 162 °C.

Turning to `COc1ccc2c(Oc3ccc(OCCN4CCCCC4)cc3)c(-c3ccc(O)cc3)sc2c1` (as salt: hydrochloride) [Example 17, [6-methoxy-3-[4-[2-(1-piperidinyl)ethoxy]-phenoxy]-2-(4-hydroxyphenyl)]benzo[b]thiophene Hydrochloride], the melting point lay in the range of 215 to 217 °C.

`COc1ccc(-c2sc3cc(OC)ccc3c2Oc2ccc(OCCN3CCCCC3)cc2)cc1` (as salt: oxalate) [Example 1, [6-methoxy-3-[4-[2-(1-piperidinyl)ethoxy]-phenoxy]-2-(4-methoxyphenyl)]benzo[b]thiophene Oxalate Salt]: the melting point is 197 to 200 °C (dec.).

With `COc1ccc(-c2sc3cc(OC)ccc3c2Oc2ccc(OCCN3CCCC3)cc2)cc1` [Example 3, [6-Methoxy-3-[4-[2-(1-pyrolodinyl)ethoxy]-phenoxy]-2-(4-methoxyphenyl)]benzo[b]thiophene], the melting point lay in the range of 95 to 98 °C.

With `Oc1ccc(-c2sc3cc(O)ccc3c2Oc2ccc(OCCN3CCCCC3)cc2)cc1` [Example 7, [6-Hydroxy-3-[4-[2-(1-piperidinyl)ethoxy]-phenoxy]-2-(4-hydroxyphenyl)]benzo[b]thiophene], the “peaks corresponding to the glucuronide conjugates in the HPLC chromatogram of the cerebral cortex homogenate” value in data set [1] is recorded as “not observed”.

The compound `Oc1ccc(-c2sc3cc(O)ccc3c2Oc2ccc(OCCN3CCCC3)cc2)cc1` [Example 10, [6-Hydroxy-3-[4-[2-(1-pyrolidinyl)ethoxy]-phenoxy]-2-(4-hydroxyphenyl)]benzo[b]thiophene] registered a melting point of 99 to 113 °C.

`Oc1ccc(-c2sc3cc(O)ccc3c2Oc2ccc(OCCN3CCCCCC3)cc2)cc1` [Example 11, [6-Hydroxy-3-[4-[2-(1-hexamethyleneimino)ethoxy]phenoxy]-2-(4-hydroxyphenyl)]benzo[b]thiophene]: the melting point fell in the range of 125 to 130 °C.

Compound `CCN(CC)CCOc1ccc(Oc2c(-c3ccc(O)cc3)sc3cc(O)ccc23)cc1` [Example 12, [6-Hydroxy-3-[4-[2-(1-N,N-diethylamino)ethoxy]phenoxy]-2-(4-hydroxyphenyl)]benzo[b]thiophene] returned a melting point of 137 to 141 °C.

Take `COc1ccc(-c2sc3cc(O)ccc3c2Oc2ccc(OCCN3CCCCC3)cc2)cc1` [Example 14, [6-Hydroxy-3-[4-[2-(1-piperidinyl)ethoxy]-phenoxy]-2-(4-methoxyphenyl)]benzo[b]thiophene]: the “mRNA display pattern in rat hippocampus compared with that observed for estrogen” value in data set [2] is “parallel pattern of gene activation or inactivation”.

With `COc1ccc(-c2sc3cc(O)ccc3c2Oc2ccc(OCCN3CCCCC3)cc2)cc1` [Example 15, [6-Hydroxy-3-[4-[2-(1-piperidinyl)ethoxy]-phenoxy]-2-(4-methoxyphenyl)]benzo[b]thiophene Hydrochloride Salt], the “time after dosing at which peak levels of radioactive material were reached” value in data set [3] (all tissues with the exception of the liver) was determined as 8 h; in data set [3] (liver) it was 4 h. Further, in data set [1], the “peaks corresponding to the glucuronide conjugates in the HPLC chromatogram of the cerebral cortex homogenate” value was “not observed”. Further, the “peaks in the HPLC chromatogram of the liver homogenates” value in data set [1] (liver samples collected at four and eight hours after dosing) was “peaks whose retention times corresponded to the parent compound and its glucuronide conjugate”.

On to `COc1ccc2c(Oc3ccc(OCCN4CCCCC4)cc3)c(-c3ccc(O)cc3)sc2c1` [Example 16, [6-methoxy-3-[4-[2-(1-piperidinyl)ethoxy]phenoxy]-2-(4-hydroxyphenyl)]benzo[b]thiophene], for which the melting point was 147 to 150 °C.

Values taken from US20020013342A1, “Treatment of central nervous system disorders with selective estrogen receptor modulators” (priority 1997, published 2002).
